The source of these data is publication PMC11111691, “Cystine-knot peptide inhibitors of HTRA1 bind to a cryptic pocket within the active site region” (Nature Communications, 2024).

Positions of bridges follow the written chain, without caps; N, C: chain ends. Residues, ends and D or L forms follow the SMILES beside them.

One data set deals with HeLa cells. As to the kind of experiment: Cell toxicity assay (CellTiter-Glo), HeLa. It counts as cell-based. The procedure: reduction at the highest CKP concentration of 50 µM after 72 h (see results below). The absence of cell toxicity is likely due to the inability of the CKPs to penetrate cell membranes, which was experimentally determined in response to another reviewer. Due to space limitations we have not […]
Protocol of cell toxicity assay (Figure above):
HeLa cells or C32 melanoma cells were passaged in DMEM media supplemented with 10% FBS, 1% pen-strep and 1x Glutamax using standard culture conditions (5% CO2, 90% humidity at 37°C). At approximately 95% confluence cells were trypsinized, seeded onto 96-well plates (Corning) at 10,000 cells/well and grown for 24 h. Cells were then incubated with the CKPs 3B3, 1D3-ENI and 1G10-ENI (0, 0.6, 1.9, 5.6, 16.7 and 50 µM) at 37°C for 24 h or for 72h. As a positive control we used staurosporine (STS; 1µM). Cell viability was measured using the CellTiter-Glo luminescent cell viability assay (Promega) on an Envision Multilabel plate reader. Average of at least three independent experiments ± S.D. were plotted in Prism 10. Two-way ANOVA was performed on each dataset and compared to no drug samples and no significant viability reductions were observed, except for some treatments at the […]

Data set [1] has as its target T1, HTRA3^PD/PDZ, HTRA3^FL (Homo sapiens, UniProt P83110).
T1 construct: purchased Abcam (FL form); the PD/PDZ form was made in house in E. coli ab134450
As to the kind of experiment: H2-OPT selectivity assay, HTRA3. The format is biochemical. To be noted: 2 µM CKP (0.5 mM 7mer-ABP). On the procedure:
Assays with the fluorescence-quenched synthetic substrate Mca-IRRVSYSFK(Dnp)K (H2-OPT)[38],[60] were carried out essentially as described. CKP stock solutions in DMSO were diluted in TNC buffer (dilution series for IC50 determinations, or final concentration of 2 µM for selectivity assay or as indicated for HTRA1/4 mutants) and incubated with enzymes in 96-well black optical bottom plates for 60 min at 37 °C. For selectivity experiments we used the 7mer-ABP as inhibitor, which was incubated with the proteases for 15 min at 37 °C. A 10 mM stock solution of H2-OPT in DMSO was diluted with water, prewarmed at 37 °C and then added to the CKP-enzyme mixtures. The final concentrations in the reaction mixtures were: 1 nM HTRA1^FL, 3 nM HTRA1^PD/PDZ, 1 nM HTRA1^PD, 1 nM HTRA2^PD/PDZ, 3 nM HTRA3^FL, 60 nM HTRA3^PD/PDZ, 6 nM HTRA4^FL, 1 µM HTRA4^PD/PDZ, 1 nM mouse HTRA1^PD, 25 nM HTRA1^PD-A202Y, 1 µM HTRA4^PD/PDZ-Y200A, 0.5 mM 7mer-ABP, 5 µM H2-OPT, and 0.25% DMSO. The kinetics of substrate cleavage was measured at 37 °C on a SpectraMax M5 microplate reader with excitation of 328 nm and emission of 393 nm. The determined initial rates of cleavage were expressed as percent of control (DMSO control) after subtracting the baseline rates (without enzyme). IC50 values were determined by Sigmoidal 4PL modeling of multiple data points from serial dilutions of CKPs using Prism 9 software (GraphPad). […]

Data set [2] has as its target T2, HTRA1^FL, HTRA1^PD, HTRA1^PD/PDZ (Homo sapiens, UniProt Q92743).
T2 construct: made in house; host or cells: Trichoplusia ni cells (FL); E. coli (PD, PD/PDZ)
Description: Fluorescence-quenched casein-BODIPY assay, HTRA1 constructs. The format is biochemical. Particulars: 2 µM CKP (0.5 mM 7mer-ABP). On the procedure:
(§1) The fluorescence-quenched casein-BODIPY® assay (EnzCheck®, Thermo Fisher Scientific) was carried out in TNC buffer (50 mM Tris pH 8.0, 200 mM NaCl, 0.25% CHAPS) at 37 °C in 96-well black optical bottom plates (Nalge Nunc Int., Rochester, NY). Enzymes were incubated with CKPs or DMSO control for 15 min prior to addition of casein substrate. The reactant concentrations were: 30 nM HTRA1^FL, 30 nM HTRA1^PD/PDZ, 30 nM HTRA1^PD, 30 nM HTRA2^PD/PDZ, 30 nM HTRA3^FL, 100 nM HTRA3^PD/PDZ, 30 nM HTRA4^FL, 300 nM HTRA4^PD/PDZ, 2 µM CKP, 5 µg/ml casein substrate and 0.25% DMSO. For selectivity assays, 0.5 mM 7mer-ABP was used as positive control. The kinetics of substrate cleavage were measured at 37 °C on a SpectraMax M5 microplate reader (Molecular Devices) with excitation of 485 nm and emission of 530 nm for 30 min (HTRA1 and HTRA2) or 5 h (HTRA3 and HTRA4). The determined initial rates of cleavage were expressed as percent of control (DMSO control) after subtracting the baseline rates (without enzyme).

The target of data set [3] is T1, HTRA3^PD/PDZ, HTRA3^FL. Description: Fluorescence-quenched casein-BODIPY assay, HTRA3. It counts as biochemical. Particulars: 2 µM CKP (0.5 mM 7mer-ABP). On the procedure:
as §1

In a further data set the target is T3, HTRA2^PD/PDZ (Homo sapiens, UniProt O43464).
T3 construct: Human HTRA2^PD/PDZ (A134-E458) was from R & D Systems; purchased R & D Systems 1458-HT-100
T3 sequence (O43464 134-458): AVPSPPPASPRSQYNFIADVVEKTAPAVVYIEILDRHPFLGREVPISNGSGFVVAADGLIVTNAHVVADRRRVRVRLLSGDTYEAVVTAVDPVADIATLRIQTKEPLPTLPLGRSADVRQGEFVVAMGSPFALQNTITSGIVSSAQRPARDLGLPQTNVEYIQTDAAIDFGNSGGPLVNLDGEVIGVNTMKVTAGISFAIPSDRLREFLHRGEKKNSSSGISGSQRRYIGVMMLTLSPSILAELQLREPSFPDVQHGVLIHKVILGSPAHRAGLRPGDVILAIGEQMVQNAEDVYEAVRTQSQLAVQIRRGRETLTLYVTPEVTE
As to the kind of experiment: Fluorescence-quenched casein-BODIPY assay, HTRA2. The format is biochemical. Particulars: 30 nM HTRA2^PD/PDZ, 2 µM CKP (0.5 mM 7mer-ABP). The procedure: as §1

`CC[C@H](C)[C@H](NC(=O)[C@@H]1CCCN1C(=O)[C@H](CC(=O)O)NC(=O)[C@H](C)NC(=O)[C@@H](N)Cc1c[nH]cn1)C(=O)N[C@H]1CSSC[C@@H]2NC(=O)[C@H](Cc3ccccc3)NC(=O)[C@H](Cc3c[nH]c4ccccc34)NC(=O)[C@H](C)NC(=O)CNC(=O)[C@H](CO)NC(=O)[C@@H]3CSSC[C@@H](C(=O)NCC(=O)N4CCC[C@H]4C(=O)N[C@@H](Cc4ccc(O)cc4)C(=O)N[C@H](C(=O)NCC(N)=O)C(C)C)NC(=O)[C@H](CO)NC(=O)[C@H](Cc4c[nH]c5ccccc45)NC(=O)[C@H]([C@@H](C)O)NC(=O)[C@H](C)NC(=O)[C@H](Cc4ccc(O)cc4)NC(=O)[C@H](Cc4ccc(O)cc4)NC(=O)[C@H](CSSC[C@H](NC(=O)[C@@H]4CCCN4C(=O)[C@H](CCCCN)NC(=O)[C@H](CC(N)=O)NC1=O)C(=O)N[C@@H](CCCCN)C(=O)N[C@@H]([C@@H](C)O)C(=O)N[C@@H](Cc1c[nH]cn1)C(=O)N[C@@H](CC(=O)O)C(=O)N[C@@H](CC(=O)O)C(=O)N3)NC(=O)[C@H](C)NC(=O)[C@H](CCC(N)=O)NC2=O` [3B3] (H-HADPICNKPCKTHDDCSGAWFCQACYYATWSCGPYVG-NH2; disulfide 6-22, 10-25, 16-32): the “Viability reduction, HeLa cells, 24 h” value with HeLa cells (50 µM CKP, 24 h) is 9%. Also, in the data set on HeLa cells (50 µM CKP, 72 h), the “Viability reduction, HeLa cells, 72 h” value was 13%. Further, the “Cell viability, HeLa cells” value in the data set with HeLa cells (0.6-50 µM CKP, 24 h and 72 h, at least three independent experiments) is “did not appreciably affect cell viability”.
Take DPMFKLV-phosphonate [7mer-ABP]: at HTRA3^PD/PDZ, HTRA3^FL [1] (3 nM HTRA3^FL), the “Inhibition of HTRA3^FL, H2-OPT (% of control)” value is on record as “significantly inhibited”. For the same compound, on HTRA3^PD/PDZ, HTRA3^FL [1] (60 nM HTRA3^PD/PDZ, 5 µM H2-OPT), the “Inhibition of HTRA3^PD/PDZ, H2-OPT (% of control)” value is reported as “significantly inhibited”. Moreover, in data set [2] (30 nM HTRA1^FL, 5 µg/ml casein, 37 °C), the “Inhibition of HTRA1^FL, casein-BODIPY cleavage (% of control)” value is given as “significantly inhibited”. Further, in data set [2] (30 nM HTRA1^PD/PDZ), the “Inhibition of HTRA1^PD/PDZ, casein-BODIPY cleavage (% of control)” value was “significantly inhibited”. Moreover, the “Inhibition of HTRA3^FL, casein-BODIPY cleavage (% of control)” value on HTRA3^PD/PDZ, HTRA3^FL [3] (30 nM HTRA3^FL) is “significantly inhibited”. The “Inhibition of HTRA3^PD/PDZ, casein-BODIPY cleavage (% of control)” value at HTRA3^PD/PDZ, HTRA3^FL [3] (100 nM HTRA3^PD/PDZ) is recorded as “significantly inhibited”. The “Inhibition of HTRA2^PD/PDZ, casein-BODIPY cleavage (% of control)” value at HTRA2^PD/PDZ is recorded as “significantly inhibited”.
